Assay results as given in patent publication US12227509B2, “Dihydropyrazolopyrazinone derivative having MGAT2 inhibitory activity” (Shionogi & Co., Ltd., priority 2019, dated 2025).

Target: recombinant human MGAT2 (Homo sapiens (Human), UniProt Q3SYC2)
Test: Measurement of human MGAT2 inhibitory activity
Type: biochemical
Details: concentration exhibiting 50% enzyme inhibition, recombinant human MGAT2, 2-Oleoylglycerol/Oleoyl-CoA
Experimental: A full-length human MGAT2 gene to which a Flag-tag had been added at the N-terminal was inserted into pFastBac (from Invitrogen). A recombinant baculovirus was produced in accordance with the protocol for a Bac-to-Bac baculovirus expression system (produced by Invitrogen), and Sf-9 cells were infected therewith. The cells were collected and sonicated, and then the membrane fraction was collected through centrifugation. Western blotting analysis with an anti-Flag antibody was performed for the membrane fraction to confirm expression, and the membrane fraction was used as a recombinant human MGAT2 enzyme solution.
Solutions of the compounds of the present invention in DMSO were each aliquoted into 0.2-μL portions in a 384-well polystyrene microplate produced by Corning Incorporated, and 5 μL of an enzyme solution prepared with an assay buffer (100 mmol/L phosphate buffer (pH 7.4) containing 2 mmol/L DTT) and 5 μL of a substrate solution (100 mmol/L phosphate buffer (pH 7.4), 30 μmol/L 2-Oleoylglycerol, 10 μmol/L Oleoyl-CoA) were added thereto, and the resultant was stirred and centrifuged, and incubated in a moist chamber at room temperature for 1 hour. After enzymatic reaction, 50 μL of a quenching solution (containing 0.2 μmol/L Diolein-d5, 0.4% formic acid, and 50% isopropanol) containing Internal Standard (IS) was added to terminate the reaction, and the resultant was sealed in a plate produced by Shimadzu GLC Ltd., and then stirred and centrifuged, and measurement was performed by using an electrospray ionization method with a RapidFire360 and Agilent 6550 Q-TOF mass spectrometer. Diolein as a reaction product (P) of 2-Oleoylglycerol as the substrate and an ammonium adduct ion of the IS were detected, and the peak intensity ratio, P/IS, was calculated from the peak heights to evaluate the inhibitory activity. Inhibitory activities with/without addition of enzyme were defined as Control (+)/Control (−), respectively, and the respective % inhibitions were defined as 0% inhibition and 100% inhibition. The inhibitory activity was calculated from formula below with TIBCO Spotfire (produced by TIBCO Software Inc.)
Inhibitory activity (%)=[1−{Sample−Control (−)}/{Control (+)−Control (−)}]*100 where Sample indicates a peak intensity ratio: P/IS, when the compound of the present invention was added.

recombinant human MGAT2, sequence (Q3SYC2 whole entry): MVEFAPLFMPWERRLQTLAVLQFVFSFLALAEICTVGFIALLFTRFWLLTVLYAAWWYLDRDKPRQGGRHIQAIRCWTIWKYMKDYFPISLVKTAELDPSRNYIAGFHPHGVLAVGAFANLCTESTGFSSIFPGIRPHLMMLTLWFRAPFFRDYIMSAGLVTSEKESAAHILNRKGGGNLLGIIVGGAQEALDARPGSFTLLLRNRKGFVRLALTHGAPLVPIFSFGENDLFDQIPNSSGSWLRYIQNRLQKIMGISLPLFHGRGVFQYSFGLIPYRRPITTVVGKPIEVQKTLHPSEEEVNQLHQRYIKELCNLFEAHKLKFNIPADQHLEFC

IC50 (listed as 1-62)	IC50	Structure (SMILES)
1.39 nM	–	CS(=O)(=O)CC(=O)Nc1c(CCCC(F)(F)F)nn2c1C(=O)NC1(CCc3cc(OCC(F)(F)F)ccc31)C2 (single isomer, unassigned) [Compound I-62]
–	9.48 nM	N#Cc1ccc(-c2nn3c(c2NC(=O)COC(F)(F)F)C(=O)N[C@]2(CCc4cc(OCC(F)(F)F)ccc42)C3)nc1 [Compound I-12]
–	2.56 nM	N#Cc1ccc(-c2nn3c(c2NC(=O)C2CS(=O)(=O)C2)C(=O)N[C@@]2(CCc4cc(OCC(F)(F)F)ccc42)C3)nc1 [Compound I-15]
–	1.36 nM	Cc1ccc(-c2nn3c(c2NC(=O)CS(C)(=O)=O)C(=O)N[C@@]2(CCc4cc(OCC(F)(F)F)ccc42)C3)cc1F [Compound I-34]
–	4.37 nM	CS(=O)(=O)CC(=O)Nc1c(-c2ccc(OC(F)(F)F)cc2)nn2c1C(=O)N[C@]1(CCc3cc(OCC(F)(F)F)ccc31)C2 [Compound I-83]
–	1.75 nM	Cc1c(F)cc(-c2nn3c(c2NC(=O)CS(C)(=O)=O)C(=O)N[C@@]2(CCc4cc(OCC(F)(F)F)ccc42)C3)cc1F [Compound I-53]
–	21.2 nM	CC(C)(O)c1ccc(-c2nn3c(c2NC(=O)CS(C)(=O)=O)C(=O)N[C@@]2(CCc4cc(OCC(F)(F)F)ccc42)C3)cc1 [Compound I-37]
–	3.51 nM	CC(C)c1ccc(-c2nn3c(c2NC(=O)CS(C)(=O)=O)C(=O)N[C@]2(CCc4cc(OCC(F)(F)F)ccc42)C3)cc1 [Compound I-97]
–	9.47 nM	CC(C)(O)c1ccc(-c2nn3c(c2NC(=O)CS(C)(=O)=O)C(=O)N[C@]2(CCc4cc(OCC(F)(F)F)ccc42)C3)cc1 [Compound I-93]
–	0.761 nM	CS(=O)(=O)CC(=O)Nc1c(-c2ccc(F)c(F)c2)nn2c1C(=O)N[C@]1(CCc3cc(OCC(F)(F)F)ccc31)C2 [Compound I-89]
–	4.79 nM	CC(C)c1ccc(-c2nn3c(c2NC(=O)CS(C)(=O)=O)C(=O)N[C@@]2(CCc4cc(OCC(F)(F)F)ccc42)C3)cc1 [Compound I-49]
–	1.26 nM	CS(=O)(=O)CC(=O)Nc1c(CCC2CC2)nn2c1C(=O)NC1(CN(c3ccc(C(F)(F)F)cc3)C1)C2 [Compound I-64]
–	24.7 nM	CCCCCc1nn2c(c1NC(=O)CS(C)(=O)=O)C(=O)N[C@@]1(CCc3cc(OCC)ccc31)C2 [Compound I-104]
–	19.5 nM	Cc1cc(F)ccc1-c1nn2c(c1NC(=O)CS(C)(=O)=O)C(=O)N[C@]1(CCc3cc(OCC(F)(F)F)ccc31)C2 [Compound I-91]
–	3.04 nM	CS(=O)(=O)CC(=O)Nc1c(-c2ccc(C#N)cn2)nn2c1C(=O)NC1(CN(c3ccc(C(F)(F)F)cc3)C1)C2 [Compound I-7]
–	3.6 nM	CS(=O)(=O)CC(=O)Nc1c(-c2ccccn2)nn2c1C(=O)N[C@]1(CCc3cc(OCC(F)(F)F)ccc31)C2 [Compound I-18]
–	4.49 nM	CCOc1ccc2c(c1)OCC[C@@]21Cn2nc(-c3ccc(F)cc3)c(NC(=O)CS(C)(=O)=O)c2C(=O)N1 [Compound I-134]
–	0.617 nM	CS(=O)(=O)CC(=O)Nc1c(-c2cc(F)c(F)c(F)c2)nn2c1C(=O)N[C@@]1(CCc3cc(OCC(F)(F)F)ccc31)C2 [Compound I-36]
–	1.28 nM	CS(=O)(=O)CC(=O)Nc1c(-c2ccc(C(F)F)cc2)nn2c1C(=O)N[C@]1(CCc3cc(OCC(F)(F)F)ccc31)C2 [Compound I-80]
–	1.28 nM	CS(=O)(=O)CC(=O)Nc1c(-c2ccc(C#N)c(F)c2)nn2c1C(=O)N[C@]1(CCc3cc(OCC(F)(F)F)ccc31)C2 [Compound I-99]
–	3.89 nM	CS(=O)(=O)CC(=O)Nc1c(-c2ccc(OC(F)F)cc2)nn2c1C(=O)N[C@@]1(CCc3cc(OCC(F)(F)F)ccc31)C2 [Compound I-28]
–	3.96 nM	CS(=N)(=O)CC(=O)Nc1c(-c2ccc(C(F)(F)F)cc2)nn2c1C(=O)N[C@@]1(CCc3cc(OCC(F)(F)F)ccc31)C2 (stereo partly drawn) [Compound I-112]
–	2.73 nM	CCCCCc1nn2c(c1NC(=O)CS(C)(=O)=O)C(=O)N[C@@]1(CCc3cc(OCC(F)(F)F)ccc31)C2 [Compound I-47]
–	2.55 nM	CS(=O)(=O)CC(=O)Nc1c(-c2ccc(C#N)cc2)nn2c1C(=O)N[C@]1(CCc3cc(OCC(F)(F)F)ccc31)C2 [Compound I-87]
–	5.65 nM	CS(=O)(=O)CC(=O)Nc1c(CCC(F)(F)F)nn2c1C(=O)N[C@]1(CCc3cc(OCC(F)(F)F)ccc31)C2 [Compound I-102]
–	6.72 nM	CCOc1ccc2c(c1)CC[C@]21Cn2nc(-c3ccc(F)cc3)c(NC(=O)CS(C)(=O)=O)c2C(=O)N1 [Compound I-116]

IC50 (listed as 1-62)	IC50	Structure (SMILES)
–	4.04 nM	CCOc1ccc2c(c1)CC[C@@]21Cn2nc(-c3ccc(F)cc3)c(NC(=O)CS(C)(=O)=O)c2C(=O)N1 [Compound I-68]
–	208 nM	CS(=O)(=O)CC(=O)Nc1c(-c2ccc(S(C)(=O)=O)cc2)nn2c1C(=O)N[C@]1(CCc3cc(OCC(F)(F)F)ccc31)C2 [Compound I-96]
–	2.98 nM	CS(=O)(=O)CC(=O)Nc1c(-c2ccc(F)cn2)nn2c1C(=O)N[C@@]1(CCOc3cc(F)cc(F)c31)C2 [Compound I-119]
–	4.59 nM	COc1ccc(-c2nn3c(c2NC(=O)CS(C)(=O)=O)C(=O)N[C@]2(CCc4cc(OCC(F)(F)F)ccc42)C3)cc1F [Compound I-100]
–	1.03 nM	CS(=O)(=O)CC(=O)Nc1c(-c2ccc(C3CC3)cn2)nn2c1C(=O)N[C@]1(CCc3cc(OCC(F)(F)F)ccc31)C2 [Compound I-56]
–	2.78 nM	CCOc1ccc2c(c1)CC[C@@]21Cn2nc(-c3ccc(F)c(F)c3)c(NC(=O)CS(C)(=O)=O)c2C(=O)N1 [Compound I-69]
–	6.51 nM	COc1ccc(-c2nn3c(c2NC(=O)CS(C)(=O)=O)C(=O)N[C@]2(CCc4cc(OCC(F)(F)F)ccc42)C3)cc1 [Compound I-82]
–	58 nM	N#Cc1ccc(-c2nn3c(c2NC(=O)COC(F)(F)F)C(=O)N[C@@]2(CCc4cc(OCC(F)(F)F)ccc42)C3)nc1 [Compound I-17]
–	11.1 nM	CS(=O)(=O)CC(=O)Nc1c(CCC2CC2)nn2c1C(=O)N[C@@]1(CCc3cc(F)cc(F)c31)C2 [Compound I-140]
–	6.02 nM	CS(=O)(=O)CC(=O)Nc1c(-c2ccc(F)cn2)nn2c1C(=O)N[C@@]1(CCc3cc(F)cc(F)c31)C2 [Compound I-121]
–	248 nM	Cc1ccc(-c2nn3c(c2NC(=O)CC(F)(F)F)C(=O)N[C@]2(CCc4cc(OCC(F)(F)F)ccc42)C3)nc1 [Compound I-39]
–	1.91 nM	N#Cc1ccc(-c2nn3c(c2NC(=O)C2CS(=O)(=O)C2)C(=O)N[C@]2(CCc4cc(OCC(F)(F)F)ccc42)C3)nc1 [Compound I-10]
–	2.6 nM	CS(=O)(=O)CC(=O)Nc1c(-c2ccc(F)cc2)nn2c1C(=O)N[C@]1(CCOc3cc(OCC(F)(F)F)ccc31)C2 [Compound I-70]
–	1.8 nM	CS(=O)(=O)CC(=O)Nc1c(-c2ccc(F)c(F)c2)nn2c1C(=O)N[C@]1(CCOc3cc(OCC(F)(F)F)ccc31)C2 [Compound I-71]
–	7.01 nM	CS(=O)(=O)CC(=O)Nc1c(-c2ccc(OC(F)(F)F)cc2)nn2c1C(=O)N[C@@]1(CCc3cc(OCC(F)(F)F)ccc31)C2 [Compound I-27]
–	6.43 nM	C[S@@](=N)(=O)CC(=O)Nc1c(-c2ccc(F)c(Cl)c2)nn2c1C(=O)N[C@@]1(CCc3cc(OCC(F)(F)F)ccc31)C2 (single isomer, unassigned) [Compound I-72]
–	1.32 nM	CS(=O)(=O)CC(=O)Nc1c(-c2ccc(C#N)c(F)c2)nn2c1C(=O)N[C@@]1(CCc3cc(OCC(F)(F)F)ccc31)C2 [Compound I-51]
–	1.33 nM	CS(=O)(=O)CC(=O)Nc1c(-c2ccc(C(F)(F)F)cc2)nn2c1C(=O)N[C@@]1(CCc3cc(OCC(F)(F)F)ccc31)C2 [Compound I-25]
–	1.54 nM	CS(=O)(=O)CC(=O)Nc1c(-c2ccc(C(F)(F)F)cc2)nn2c1C(=O)N[C@]1(CCc3cc(OCC(F)(F)F)ccc31)C2 [Compound I-81]
–	4.91 nM	CS(=O)(=O)CC(=O)Nc1c(-c2ccc(C3CC3)cc2)nn2c1C(=O)N[C@@]1(CCc3cc(OCC(F)(F)F)ccc31)C2 [Compound I-29]
–	1.4 nM	CS(=O)(=O)CC(=O)Nc1c(-c2ccc(Cl)c(F)c2)nn2c1C(=O)N[C@@]1(CCOc3cc(F)cc(F)c31)C2 [Compound I-144]
–	419 nM	CS(=O)(=O)CC(=O)Nc1c(-c2ccc(S(C)(=O)=O)cc2)nn2c1C(=O)N[C@@]1(CCc3cc(OCC(F)(F)F)ccc31)C2 [Compound I-48]
–	1.08 nM	CS(=O)(=O)CC(=O)Nc1c(CCC2CC2)nn2c1C(=O)N[C@]1(CCc3cc(OCC(F)(F)F)ccc31)C2 [Compound I-94]
–	2.14 nM	CS(=O)(=O)CC(=O)Nc1c(CCC2CC2)nn2c1C(=O)N[C@]1(CCOc3cc(OCC(F)(F)F)ccc31)C2 [Compound I-110]
–	4.95 nM	C[S@@](=N)(=O)CC(=O)Nc1c(-c2cc(F)c(F)c(F)c2)nn2c1C(=O)N[C@@]1(CCc3cc(OCC(F)(F)F)ccc31)C2 (single isomer, unassigned) [Compound I-106]
